Experimental data taken from PMC7884786 (Translational Psychiatry, 2021).
“Also recorded” adds a separate entry of the source. Like-named read-outs stand apart in the source and are kept apart here.

Assays:
parental INS-1E cells = assay: Glucose-stimulated insulin secretion (GSIS) in parental INS-1E cells; assay type: cell-based; details: Rattus norvegicus, 1.5 h, read-out: IC50, inhibition of GSIS
[1] = system: glucose-stimulated insulin secretion (GSIS) from β-cells in mouse islets; assay: Islet secretion assay: insulin secretion from mouse islets; assay type: cell-based
Protocol: (§1) Islets were freshly isolated via collagenase digestion of pancreata as described previously. Human pancreatic islets were isolated via collagenase digestion and purified from four non-diabetic human donors (Supplementary Table S1) as described previously. Following isolation and purification, human or mouse islets were plated at a density of 15 islets per well into 24-well tissue culture-treated plates. […] The islets were used immediately after overnight recovery for hormone secretion assays.
(§2) Measurements of hormone secretion were performed using static incubation of pancreatic islets. […] Islets were then transferred to a 24-well plate containing KRB buffer also supplemented with 25 mM glucose. Drug treatments were added in KRB (25 mM glucose) (1 hr, 37 °C, 5% CO2). After treatment, KRB was supplemented with a protease inhibitor cocktail (1 tablet/10 mL KRB; Roche Diagnostics, Mannheim, Germany) to prevent glucagon degradation. Supernatants were collected and placed on ice to further prevent glucagon degradation and precipitation. Undiluted supernatants and 1:2 dilutions were used for the glucagon detection assay, while 1:10 dilutions were used for insulin measurement; all dilutions were in KRB.

[2] = system: α-cell glucagon secretion in human islets; assay: Islet secretion assay: glucagon secretion from human islets; assay type: cell-based; details: for effect on glucagon secretion: increasing concentrations, relative to vehicle control; for increase in glucagon secretion compared to vehicle / effect on α-cell glucagon secretion: 1 µM; for effect on α-cell glucagon secretion: relative to vehicle
Protocol: as §1, with “For mouse pancreatic islet preparations, islets were obtained from 8 to 10-week-old wild-type BALB/c mice. Islets” for “Islets”
(§3) Measurements of hormone secretion were performed using static incubation of pancreatic islets. […] The increased glucose (25 mM) was used to inhibit α-cell glucagon secretion to diminish glucagon levels to basal levels to improve the dynamic range of the assay and thus effectively unmask the role of ligand-mediated glucagon secretion as described earlier. Islets were then transferred to a 24-well plate containing KRB buffer also supplemented with 25 mM glucose. Drug treatments were added in KRB (25 mM glucose) (1 hr, 37 °C, 5% CO2). After treatment, KRB was supplemented with a protease inhibitor cocktail (1 tablet/10 mL KRB; Roche Diagnostics, Mannheim, Germany) to prevent glucagon degradation. Supernatants were collected and placed on ice to further prevent glucagon degradation and precipitation. Undiluted supernatants and 1:2 dilutions were used for the glucagon detection assay, while 1:10 dilutions were used for insulin measurement; all dilutions were in KRB.

[3] = biological target: T1, endogenous α2A-adrenergic receptors in INS-1E cells (Rattus norvegicus, UniProt P22909); assay: [3H]RX821002 radioligand binding, INS-1E cell membranes; details: for Bmax, saturation binding / Kd: parental INS-1E cell membranes; for Kd: read-out: KD, saturation binding
T1 construct: adherent INS-1E cells expressing the endogenous α2A-adrenergic receptors; endogenous in cells; host or cells: INS-1E (rat insulinoma) cell membranes
T1 sequence (P22909 1-465): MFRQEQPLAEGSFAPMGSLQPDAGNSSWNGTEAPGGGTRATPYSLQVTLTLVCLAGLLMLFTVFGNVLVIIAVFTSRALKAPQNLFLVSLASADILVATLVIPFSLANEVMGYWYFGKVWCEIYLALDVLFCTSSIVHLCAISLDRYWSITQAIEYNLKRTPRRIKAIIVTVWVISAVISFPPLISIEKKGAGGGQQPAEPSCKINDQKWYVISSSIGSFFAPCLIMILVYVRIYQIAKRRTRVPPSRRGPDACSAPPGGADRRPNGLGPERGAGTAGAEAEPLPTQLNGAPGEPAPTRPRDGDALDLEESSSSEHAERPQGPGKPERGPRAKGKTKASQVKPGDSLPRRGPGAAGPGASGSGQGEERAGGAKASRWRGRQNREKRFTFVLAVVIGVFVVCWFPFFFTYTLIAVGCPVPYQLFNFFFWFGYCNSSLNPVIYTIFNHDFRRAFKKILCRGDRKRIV
Protocol: (§4) Radioligand binding and competition assays were conducted as previously described. Briefly, adherent INS-1E cells expressing the endogenous α2A-adrenergic receptors or transfected HEK-293 cells overexpressing human α2A-adrenergic receptor were dissociated from plates, and intact cells collected by centrifugation (600–900 g, 5–10 min, 4 °C). Cells were resuspended and lysed using 5 mM Tris-HCl and 5 mM MgCl2 (pH 7.4, 4 °C). Cell lysates were pelleted by centrifugation at 30,000 × g for 30 min and resuspended in Earle’s Balanced Salt Solution with Ca^2+ (pH 7.4). For saturation binding assays, cell lysates (100 µL, 2–5 μg of protein for HEK-293 cells and 10–20 μg of protein for INS-1E cells, quantified by the Bradford Assay) were incubated with the indicated concentrations of [^3H]RX821002 (90 min, room temperature). […] The bound ligand was separated from free ligand by filtration through a Perkin Elmer Unifilter-96 GF/C 96-well microplate using the Perkin Elmer Unifilter-96 Harvester (Perkin Elmer, Waltham, MA), followed by three washes with ice-cold assay buffer. After drying, a liquid scintillation cocktail (MicroScint PS; Perkin Elmer) was added to each well, and plates were sealed and analyzed on a Topcount NXT liquid scintillation counter (Perkin Elmer). Ki values were calculated from observed IC50 values using the Cheng–Prusoff equation[47].

α2A-adrenergic receptor = α2A-adrenergic receptor (Rattus norvegicus, UniProt P22909); assay: NanoBRET Gαi1 recruitment to α2A-adrenergic receptor; assay type: cell-based
Description: For nanoBRET experiments, we used receptor constructs consisting of either human D2R (DRD2) and rat α2A-adrenergic receptor (Adra2a) cDNAs fused to HaloTag at the C-terminus (α2A-AR-HaloTag and D2R-HaloTag). Both receptors were also tagged at the N terminus with an IL6 signal sequence followed by a HiBiT tag. […] All constructs were cloned into a pcDNA3.1(+) vector backbone (ThermoFisher Scientific) and confirmed by sequencing analysis.
For NanoLuc-only controls, empty pcDNA3.1(+) vector was used to maintain a constant amount of total transfected DNA.
Cells were harvested, washed, and resuspended in fresh medium 24 h post-transfection. Approximately 5 × 10^4 cells/well were distributed in pre-coated 96-well plates and allowed to adhere overnight (37 °C, 5% CO2). […] Following labeling, cells were washed once with HBSS, and 5 μM furimazine (substrate for NanoLuc) was added to every well. Drugs were then added to the samples and incubated for […]. Plates were read 5 min following drug addition using a PheraStar FSX equipped with a nanoBRET-compatible optic module (LUM 610 450) (BMG Labtech). […] EC50 values were calculated via a non-linear regression analysis via GraphPad software.

[4] = system: α2A-adrenergic receptor KO INS-1E cells; assay: cells; details: Rattus norvegicus, read-out: IC50, inhibition of GSIS
Description: (§5) We employed a CRISPR-Cas9-mediated approach to delete endogenous α2A-adrenergic receptor expression in INS-1E cells. Since INS-1E cells are rat-derived, we used the mRNA sequence encoding rat α2A-adrenergic receptor as a template to generate guide RNA (gRNA) to disrupt the promoter region of the Adra2a gene (gRNA sequence: 5′-[sequence]-3′, positions 57–76). We then generated a construct containing the Adra2a gRNA sequence along with cDNA sequences encoding Cas9 and GFP (pENTR-Adra2a-sgRNA-Cas9-GFP). 1–5 μg of the construct was subsequently transfected into low-passage INS-1E cells using Lipofectamine 3000 (ThermoFisher Scientific) according to manufacturer instructions. 24–48 h post-transfection, the transfected cells were identified and collected by fluorescence-activated cell sorting based on GFP fluorescence using a BD FACSAria II sorter (BD Biosciences, San Jose, CA) equipped with a GFP filter (530/30 nm).
(§6) Insulin secretion assays in INS-1E cells were conducted as described earlier[7],[42]. […] Insulin secretion was carried out 48 h after seeding the cells. On an experimental day, cells were first glucose-starved in KRB (0 mM glucose) for 1 h (37 °C, 5% CO2), followed by glucose stimulation with KRB supplemented with 20 mM glucose in the presence or absence of drugs for 90 min (37 °C, 5% CO2). The supernatants were collected and diluted 1:10 in KRB for the insulin detection assay.
(§7) The assay is based on homogeneous time-resolved fluorescence resonance energy transfer (HTRF) technology. Standard curve and assay samples (10 μL/well) were plated into a 384-well white, low-volume, round-bottom plate (Corning, Corning, NY). […] Secreted insulin was similarly detected and measured by an HTRF approach using the insulin high range detection kit (Cisbio Bioassays) as described previously[42]. The two anti-insulin antibodies were mixed in a 1:2 donor (cryptate)/acceptor (XL665) ratio in the insulin assay detection buffer (Cisbio Bioassays) and 15 µL of the insulin antibody mix was added per well. For both glucagon and insulin HTRF assays, the incubation time was 2 h at room temperature. […] The raw data were obtained in ng/mL insulin secreted and pg/mL glucagon secreted. Dose-response curves were fit via non-linear regression of Log[ligand] versus normalized % glucagon or insulin secretion. Investigators were blinded to the identity of samples during the initial analysis.

[5] = system: α-cell glucagon secretion from mouse islets; assay: Islet secretion assay: glucagon secretion from mouse islets; assay type: cell-based; details: for EC50: read-out: EC50, increase in secreted glucagon
Protocol: as §1, with “For mouse pancreatic islet preparations, islets were obtained from 8 to 10-week-old wild-type BALB/c mice. Islets” for “Islets”
as §3

[6] = system: glucose-stimulated insulin secretion (GSIS) from β-cells in human islets; assay: Islet secretion assay: insulin secretion from human islets; assay type: cell-based; details: for IC50: read-out: IC50, reduction of insulin secretion (GSIS); for increase in GSIS compared to vehicle / effect on glucose-stimulated insulin secretion: 1 µM; for effect on glucose-stimulated insulin secretion: relative to vehicle
Protocol: as §1, §2

αTC1–6 cells = assay: Catecholamine secretion assay with HPLC measurement; assay type: cell-based, mouse
Protocol: Cell-based catecholamine secretion assays were conducted as reported earlier[7]. Briefly, αTC1–6 cells were seeded into 24-well plates at an initial seeding density of 5 × 10^5 cells/well in complete DMEM medium. […] Some samples were also supplemented with 10 μM L-DOPA to boost cell catecholamine production in the presence or absence of a monoamine oxidase inhibitor cocktail (10 μM: deprenyl, pargyline, clorgyline). […] Lysates were collected and centrifuged at 17,000 rpm for 5 min at 4 °C to pellet cell debris and then added into HEGA buffer for High-Performance Liquid Chromatography (HPLC) analysis.
Assay samples were filtered (0.20 μm filter; ThermoFisher Scientific) and analyzed via HPLC with electrochemical detection as previously reported[7]. Briefly, samples were separated on a C18 reverse-phase column (Hypersil ODS C18 column, ThermoFisher Scientific) with MD-TM mobile phase (ThermoFisher Scientific).

[7] = system: membranes from α2A-adrenergic receptor KO INS-1E cells; assay: [3H]RX821002 saturation binding, α2A-adrenergic receptor KO INS-1E cell membranes; design: species or system rat
Protocol: as §4

[8] = biological target: T2, human α2A-adrenergic receptor (Homo sapiens, UniProt P08913); assay: [3H]RX821002 radioligand binding, HEK-293 cells overexpressing α2A-adrenergic receptor; details: membranes from HEK-293 cells overexpressing human α2A-adrenergic receptor
T2 construct: expressed in transfected cells; host or cells: HEK-293 (ATCC CRL-1573), transient transfection
T2 sequence (P08913 1-465): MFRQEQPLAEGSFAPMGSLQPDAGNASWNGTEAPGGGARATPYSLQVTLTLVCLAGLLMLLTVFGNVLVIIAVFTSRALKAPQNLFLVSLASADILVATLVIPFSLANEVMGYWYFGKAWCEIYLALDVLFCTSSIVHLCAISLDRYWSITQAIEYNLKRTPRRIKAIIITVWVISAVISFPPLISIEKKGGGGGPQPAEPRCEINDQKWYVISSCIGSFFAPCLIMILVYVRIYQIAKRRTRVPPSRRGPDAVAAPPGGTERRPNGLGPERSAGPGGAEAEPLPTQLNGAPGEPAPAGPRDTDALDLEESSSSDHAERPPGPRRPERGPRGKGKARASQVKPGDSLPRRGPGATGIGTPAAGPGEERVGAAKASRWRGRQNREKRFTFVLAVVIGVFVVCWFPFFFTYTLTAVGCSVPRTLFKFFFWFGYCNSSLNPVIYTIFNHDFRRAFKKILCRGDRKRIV
Protocol: as §4

[9] = system: α2A-adrenergic receptor KO INS-1E cells; details: α2A-adrenergic receptor KO INS-1E cells compared to parental
Description: as §5, §6, §7

[10] = 10 μM L-DOPA supplementation, compared to untreated cells
[11] = parental INS-1E cells, 20 mM glucose, 90 min

α2A-adrenergic receptor, sequence (P63096 2-354 partner limits assumed, one chain of several): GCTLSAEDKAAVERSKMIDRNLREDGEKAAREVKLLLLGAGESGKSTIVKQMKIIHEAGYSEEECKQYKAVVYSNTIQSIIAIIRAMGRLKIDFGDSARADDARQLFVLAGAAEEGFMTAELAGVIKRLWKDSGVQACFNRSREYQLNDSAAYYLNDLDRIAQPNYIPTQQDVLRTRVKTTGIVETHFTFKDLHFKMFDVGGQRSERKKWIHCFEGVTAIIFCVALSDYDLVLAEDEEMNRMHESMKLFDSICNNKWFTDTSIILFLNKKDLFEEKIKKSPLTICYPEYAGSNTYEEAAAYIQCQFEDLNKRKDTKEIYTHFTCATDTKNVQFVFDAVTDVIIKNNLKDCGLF

`NCCc1ccc(O)c(O)c1` [DA, Dopamine] gave an IC50 (parental INS-1E cells; INS-1E) of 1500 ± 2 nM, an IC50 ([1]; Mus musculus, read-out: IC50, reduction of insulin secretion (GSIS), mouse islets) of 1290 ± 2 nM and an IC50 ([1]; read-out: IC50, reduction of insulin secretion (GSIS), mouse islets) of 1300 ± 2 nM. The “effect on glucagon secretion” value [2] was “biphasic glucagon secretory response”, the Ki [3] was 164 ± 1.2 nM and the EC50 (α2A-adrenergic receptor) was 2100 ± 2 nM. It also gave an IC50 [4] of 474 ± 2.5 nM, an EC50 ([5]; Mus musculus, 1 h) of 14.9 ± 3.8 nM and an IC50 ([6]; Homo sapiens) of 26.2 ± 2.9 nM.
In the case of `N[C@@H](Cc1ccc(O)c(O)c1)C(=O)O` [L-DOPA, L-3,4-dihydroxyphenylalanine], the “fold increase in NE” value (αTC1–6 cells; [10]) is reported as 3 fold, the “fold increase in α-cell DA secretion” value (αTC1–6 cells; [10]) is reported as 60 fold and the “DA levels, fold more compared to NE” value (αTC1–6 cells; pre-incubation with 10 μM L-DOPA) is reported as 27 fold.
`NC[C@H](O)c1ccc(O)c(O)c1` [NE, norepinephrine] showed an IC50 (parental INS-1E cells; [11]) of 39.8 ± 1.5 nM, an IC50 ([1]; Mus musculus, mouse islets, read-out: IC50, reduction of insulin secretion (GSIS)) of 178 ± 2.4 nM and an IC50 ([1]; mouse islets, read-out: IC50, reduction of insulin secretion (GSIS)) of 179 ± 2.4 nM. For the same compound, the “effect on glucagon secretion” value [2] was “significantly enhance glucagon secretion; also recorded: significantly increased α-cell glucagon secretion”, the IC50 [4] was 1400 ± 2 nM and the EC50 ([5]; Mus musculus, 1 h, mouse islets, 25 mM glucose, 1 hr) was 142 ± 2.3 nM. For the same compound, the EC50 ([5]; mouse islets, 25 mM glucose, 1 hr) was 142 ± 2.3 nM, the IC50 ([6]; Homo sapiens, human islets) was 787.2 ± 1.3 nM and the IC50 ([6]; human islets) was 787 ± 1.3 nM.
With `COC1(C2=NCCN2)COc2ccccc2O1` (centres unmarked) [[^3H]RX821002] the “Bmax, saturation binding” value [7] was 29.1 ± 4.3 fmol/mg protein, the “Bmax, saturation binding” value [8] was 5691 ± 103 fmol/mg protein and the “Bmax, saturation binding” value ([8]; listed as [3H]RX821002) was 5691±103 fmol/mg protein. For the same compound, the Kd ([8]; read-out: KD, saturation binding) was 0.67 ± 0.05 nM, the “Bmax, saturation binding” value [3] was 110 ± 3.3 fmol/mg protein and the “Bmax, saturation binding” value ([3]; listed as [3H]RX821002) was 110±0.02 fmol/mg protein. The Kd ([3]; listed as [3H]RX821002) was 0.098 ± 0.02 nM and the Kd [3] was 0.1 ± 0.02 nM.
In the case of `Clc1cccc(Cl)c1N=C1NCCN1` [clonidine], the IC50 (parental INS-1E cells; [11]) is reported as 12.7 ± 1.3 nM and the “GSIS inhibition in KO cells” value [9] is reported as “attenuated; also recorded: virtually eliminated”.
For `CN1CCN(C2=Nc3cc(Cl)ccc3Nc3ccccc32)CC1` [clozapine], the “increase in glucagon secretion compared to vehicle” value (“increase in glucagon secretion” below) [2] was 200.2 ± 21.7%, the “effect on α-cell glucagon secretion” value [2] was “significantly raised α-cell glucagon secretion” and the “increase in GSIS compared to vehicle” value ([6]; human islets) was 19.8 ± 4.0%. For the same compound, the “effect on glucose-stimulated insulin secretion” value ([6]; human islets) was “raised glucose-stimulated insulin secretion”.
In the case of `O=C(CCCN1CCC(O)(c2ccc(Cl)cc2)CC1)c1ccc(F)cc1` [haloperidol], the “increase in glucagon secretion” value [2] is reported as 67.1 ± 13.6%, the “effect on α-cell glucagon secretion” value [2] is reported as “significantly raised α-cell glucagon secretion” and the “increase in GSIS compared to vehicle” value ([6]; human islets) is reported as 24.1 ± 4.6%. For the same compound, the “effect on glucose-stimulated insulin secretion” value ([6]; human islets) was “raised glucose-stimulated insulin secretion”.
With `Cc1cc2c(s1)Nc1ccccc1N=C2N1CCN(C)CC1` [olanzapine] the “increase in glucagon secretion” value [2] was 105.7 ± 23.4%, the “effect on α-cell glucagon secretion” value [2] was “significantly raised α-cell glucagon secretion” and the “increase in GSIS compared to vehicle” value ([6]; human islets) was 43.6 ± 3.1%. For the same compound, the “effect on glucose-stimulated insulin secretion” value ([6]; human islets) was “raised glucose-stimulated insulin secretion”.
In the case of `CC(C)NC[C@H](O)COc1cccc2ccccc12` [propranolol, S-(−)-propranolol], the “effect of propranolol on DA-induced glucagon secretion” value ([5]; mouse islets, propranolol 100 nM pre-treatment prior to DA) is reported as “attenuates DA’s enhancement of glucagon secretion; also recorded: eliminated DA-induced increases in α-cell glucagon secretion”.
